These are literature values, as cited in PubChem BioAssay AID1259409 (Chemical Carcinogenesis Research Information System (CCRIS), 2018).

The data set deals with rodent chemically induced tumor inhibition, incidence and multiplicity. The experiment in a line: CCRIS tumor inhibitor studies.

Regarding `COc1cc(CNC(=O)CCCC/C=C/C(C)C)ccc1O`, the “tumour outcome (control, treated, inhibition, significance)” value reads like this: (Carcinogen: 7,12-DIMETHYLBENZ[A]ANTHRACENE, 57-97-6, Dose [Inhibitor]: 0, 0.01% IN DIET BEGINNING 3 WK POST CARCINOGEN DOSE AND CONTINUING FOR 6 WK (STUDY DURATION: 9 WK), Route [Inhibitor]: ORAL, Species: MOUSE, Strain/Sex: SWISS/FEMALE, Target Tissue: Type of Lesion: LUNG: ADENOMA, Dose [Carcinogen]: 40 UG ONCE ADMINISTERED TO NEWBORN MICE, Promoter: NONE USED) 17/17 (100%), 20/22 (91%), 9%, not calculated; (Carcinogen: 7,12-DIMETHYLBENZ[A]ANTHRACENE, 57-97-6, Dose [Inhibitor]: 0, 0.01% IN DIET BEGINNING 3 WK POST CARCINOGEN DOSE AND CONTINUING FOR 6 WK (STUDY DURATION: 9 WK), Route [Inhibitor]: ORAL, Species: MOUSE, Strain/Sex: SWISS/MALE, Target Tissue: Type of Lesion: LUNG: ADENOMA, Dose [Carcinogen]: 40 UG ONCE ADMINISTERED TO NEWBORN MICE, Promoter: NONE USED) 10/10 (100%), 23/24 (96%), 4%, not calculated; (Carcinogen: AZOXYMETHANE (25843-45-2), Dose [Inhibitor]: 0, 500 PPM IN DIET FOR 4 WK, BEGINNING 1 WK BEFORE THE FIRST CARCINOGEN DOSE (STUDY DURATION: 38 WK), Route [Inhibitor]: ORAL, Species: RAT, Strain/Sex: F344/MALE, Target Tissue: Type of Lesion: LARGE INTESTINE: ADENOCARCINOMA, Dose [Carcinogen]: 15 MG/KG BW 1 INJECTION/WK FOR 3 WK, Promoter: NONE USED) 9/15 (60%), 4/17 (24%), 60%, p = 0.0407; (Carcinogen: AZOXYMETHANE (25843-45-2), Dose [Inhibitor]: 0, 500 PPM IN DIET FOR 4 WK, BEGINNING 1 WK BEFORE THE FIRST CARCINOGEN DOSE (STUDY DURATION: 38 WK), Route [Inhibitor]: ORAL, Species: RAT, Strain/Sex: F344/MALE, Target Tissue: Type of Lesion: LARGE INTESTINE: ADENOMA, Dose [Carcinogen]: 15 MG/KG BW 1 INJECTIONS/WK FOR 3 WK, Promoter: NONE USED) 4/15 (27%), 1/17 (6%), 78%, not significant; (Carcinogen: AZOXYMETHANE (25843-45-2), Dose [Inhibitor]: 0, 500 PPM IN DIET FOR 4 WK, BEGINNING 1 WK BEFORE THE FIRST CARCINOGEN DOSE (STUDY DURATION: 38 WK), Route [Inhibitor]: ORAL, Species: RAT, Strain/Sex: F344/MALE, Target Tissue: Type of Lesion: SMALL INTESTINE: ADENOCARCINOMA, Dose [Carcinogen]: 15 MG/KG BW 1 INJECTION/WK FOR 3 WK, Promoter: NONE USED) 4/15 (27%), 3/17 (18%), 33%, not significant; (Carcinogen: AZOXYMETHANE (25843-45-2), Dose [Inhibitor]: 0, 500 PPM IN DIET FOR 4 WK, BEGINNING 1 WK BEFORE THE FIRST CARCINOGEN DOSE (STUDY DURATION: 38 WK), Route [Inhibitor]: ORAL, Species: RAT, Strain/Sex: F344/MALE, Target Tissue: Type of Lesion: SMALL INTESTINE: ADENOMA, Dose [Carcinogen]: 15 MG/KG BW 1 INJECTION/WK FOR 3 WK, Promoter: NONE USED) 1/15 (7%), 0/17 (0%), 100%, not significant. Besides, the “tumour outcome (control, treated, inhibition, significance)” value by setting is: (Carcinogen: AZOXYMETHANE (25843-45-2), Dose [Inhibitor]: 0, 500 PPM IN DIET FOR 34 WK, BEGINNING 1 WK AFTER THE LAST CARCINOGEN DOSE (STUDY DURATION: 38 WK), Route [Inhibitor]: ORAL, Species: RAT, Strain/Sex: F344/MALE, Target Tissue: Type of Lesion: LARGE INTESTINE: ADENOCARCINOMA, Dose [Carcinogen]: 15 MG/KG BW 1 INJECTION/WK FOR 3 WK, Promoter: NONE USED) 9/15 (60%), 6/14 (43%), 28%, not significant; (Carcinogen: AZOXYMETHANE (25843-45-2), Dose [Inhibitor]: 0, 500 PPM IN DIET FOR 34 WK, BEGINNING 1 WK AFTER THE LAST CARCINOGEN DOSE (STUDY DURATION: 38 WK), Route [Inhibitor]: ORAL, Species: RAT, Strain/Sex: F344/MALE, Target Tissue: Type of Lesion: LARGE INTESTINE: ADENOMA, Dose [Carcinogen]: 15 MG/KG BW 1 INJECTION/WK FOR 3 WK, Promoter: NONE USED) 4/15 (27%), 2/14 (14%), 48%, not significant; (Carcinogen: AZOXYMETHANE (25843-45-2), Dose [Inhibitor]: 0, 500 PPM IN DIET FOR 34 WK, BEGINNING 1 WK AFTER THE LAST CARCINOGEN DOSE (STUDY DURATION: 38 WK), Route [Inhibitor]: ORAL, Species: RAT, Strain/Sex: F344/MALE, Target Tissue: Type of Lesion: SMALL INTESTINE: ADENOCARCINOMA, Dose [Carcinogen]: 15 MG/KG BW 1 INJECTION/WK FOR 3 WK, Promoter: NONE USED) 4/15 (27%), 3/14 (21%), 22%, not significant; (Carcinogen: AZOXYMETHANE (25843-45-2), Dose [Inhibitor]: 0, 500 PPM IN DIET FOR 34 WK, BEGINNING 1 WK AFTER THE LAST CARCINOGEN DOSE (STUDY DURATION: 38 WK), Route [Inhibitor]: ORAL, Species: RAT, Strain/Sex: F344/MALE, Target Tissue: Type of Lesion: SMALL INTESTINE: ADENOMA, Dose [Carcinogen]: 15 MG/KG BW 1 INJECTION/WK FOR 3 WK, Promoter: NONE USED) 1/15 (7%), 0/14 (0%), 100%, not significant; (Carcinogen: BENZO[A]PYRENE, 50-32-8, Dose [Inhibitor]: 0, 0.01% IN DIET BEGINNING 3 WK POST CARCINOGEN DOSE AND CONTINUING FOR 6 WK (STUDY DURATION: 9 WK), Route [Inhibitor]: ORAL, Species: MOUSE, Strain/Sex: SWISS/FEMALE, Target Tissue: Type of Lesion: LUNG: ADENOMA, Dose [Carcinogen]: 1 MG ONCE ADMINISTERED TO NEWBORN MICE, Promoter: NONE USED) 8/34 (24%), 4/30 (13%), 46%, p<0.05; (Carcinogen: BENZO[A]PYRENE, 50-32-8, Dose [Inhibitor]: 0, 0.01% IN DIET BEGINNING 3 WK POST CARCINOGEN DOSE AND CONTINUING FOR 6 WK (STUDY DURATION: 9 WK), Route [Inhibitor]: ORAL, Species: MOUSE, Strain/Sex: SWISS/MALE, Target Tissue: Type of Lesion: LUNG: ADENOMA, Dose [Carcinogen]: 1 MG ONCE ADMINISTERED TO NEWBORN MICE, Promoter: NONE USED) 7/35 (20%), 3/34 (9%), 55%, p<0.01. The “tumour outcome (control, treated, inhibition, significance)” value is 84%, 68%, 19%, not significant (Carcinogen: BENZO[A]PYRENE, 50-32-8, Dose [Inhibitor]: 0, 1 UMOL IN 0.2 ML ACETONE APPLIED 24 AND 1 HR PRIOR TO CARCINOGEN DOSE (STUDY DURATION: 22 WK), Route [Inhibitor]: DERMAL, Species: MOUSE, Strain/Sex: CD-1/FEMALE, Target Tissue: Type of Lesion: SKIN: TUMOR, Dose [Carcinogen]: 0.3 UMOL IN 0.2 ML ACETONE ONCE, Promoter: 12-O-TETRADECANOYLPHORBOL 13-ACETATE, 16561-29-8); 9/16 (56%), 2/15 (13%), 77%, p<0.02 (Carcinogen: N-METHYLNITROSOUREA, 684-93-5, DIETHYLNITROSAMINE, 55-18-5, N,N-DIBUTYLNITROS- AMINE, 924-16-3, Carcinogen: N-METHYLNITROSOUREA, 684-93-5, DIETHYLNITROSAMINE, 55-18-5, N,N-DIBUTYLNITROS- AMINE, 924-16-3, Dose [Inhibitor]: 0, 0.01% IN DIET FOR 16 WK BEGINNING POST LAST CARCINOGEN DOSE (STUDY DURATION: 20 WK), Route [Inhibitor]: ORAL, Species: RAT, Strain/Sex: F344/MALE, Target Tissue: Type of Lesion: LUNG: ADENOMA, Dose [Carcinogen]: 100 MG/KG DIETHYLNITROSAMINE INTRAPERITONEAL ON D 1 THEN 200 MG/KG N-METHYLNITROSOUREA ON D 2, 5, 8, 11, AND 0.05% N,N-D); 70%, 53%, 24%, not significant (Carcinogen: VINYL CARBAMATE, 15805-73-9, Dose [Inhibitor]: 0, 2.5 UMOL IN 0.2 ML ACETONE ONCE 10 MIN PRIOR TO CARCINOGEN DOSE (STUDY DURATION: 22 WK), Route [Inhibitor]: DERMAL, Species: MOUSE, Strain/Sex: ICR/FEMALE, Target Tissue: Type of Lesion: SKIN: PAPILLOMA, Dose [Carcinogen]: 5.8 UMOL IN 0.2 ML ACETONE ONCE, Promoter: 12-O-TETRADECANOYLPHORBOL 13-ACETATE, 16561-29-8).

As to `c1ccc2c(c1)Nc1ccccc1S2`, where the note is “Carcinogen: BENZO[A]PYRENE, 50-32-8, Dose [Inhibitor]: 0, 3.8 UMOL/G DIET BEGINNING 1 WK PRIOR TO CARCINOGEN TREATMENT AND CONTINUING FOR 1 WK POST CARCINOGEN TREATMENT FOLLOW, Route [Inhibitor]: ORAL, Species: MOUSE, Strain/Sex: CD-1/FEMALE, Target Tissue: Type of Lesion: FORESTOMACH: PAPILLOMA, Dose [Carcinogen]: 1 MG IN 0.2 ML CORN OIL 2/WK FOR 4 WK, Promoter: NONE USED”, the “tumour outcome (control, treated, inhibition, significance)” value was 85%, 100%, -18%, not significant.

As for `O=C1CCN(c2ccccc2)N1`, the “tumour outcome (control, treated, inhibition, significance)” value (Carcinogen: 7,12-DIMETHYLBENZ[A]ANTHRACENE, 57-97-6, Dose [Inhibitor]: 30 UMOL APPLIED 30-40 MIN BEFORE EACH TPA TREATMENT AND CONCURRENTLY WITH TPA (STUDY DURATION: 18 WK), Route [Inhibitor]: DERMAL, Species: MOUSE, Strain/Sex: CD-1/FEMALE, Target Tissue: Type of Lesion: SKIN: PAPILLOMA, Dose [Carcinogen]: 200 NMOL ONCE, Promoter: 12-O-TETRADECANOYLPHORBOL-13-ACETATE, 16561-29-8) is given as 96%, 100%, -4%, not calculated.
